Test results published in patent US8269000B2, “Substituted pyrimidine and triazine compounds” (Gruenenthal GmbH, priority 2008, dated 2012).

Assays:
human B1R = molecular target: T1, human B1R (Homo sapiens, UniProt P46663); assay: FLIPR Ca2+ functional study on bradykinin receptor 1 (hB1R CHO K1 cells); type: cell-based; settings: % inhibition human B1R at 10 μM, read-out: % inh. (hum. B1R) 10 μM
T1 construct: expressed in transfected cells; host or cells: CHO K1 cells
T1 sequence (P46663 1-353): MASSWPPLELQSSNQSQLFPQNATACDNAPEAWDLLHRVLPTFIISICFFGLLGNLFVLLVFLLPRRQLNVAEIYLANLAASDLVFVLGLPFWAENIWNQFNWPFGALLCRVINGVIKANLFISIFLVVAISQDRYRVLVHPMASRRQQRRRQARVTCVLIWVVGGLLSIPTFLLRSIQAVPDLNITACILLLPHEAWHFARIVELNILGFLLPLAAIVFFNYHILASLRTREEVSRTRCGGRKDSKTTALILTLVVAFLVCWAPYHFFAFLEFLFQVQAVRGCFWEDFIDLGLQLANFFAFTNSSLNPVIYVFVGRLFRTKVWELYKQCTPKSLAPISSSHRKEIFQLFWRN
Description: The agonistic or antagonistic activity of substances can be quantified on the bradykinin receptor 1 (B1R) of the species human and rat using ectopically expressing cell lines (CHO K1 cells) and with the aid of a Ca^2+-sensitive dye (Fluo-4) using a fluorescent imaging plate reader (FLIPR). The indication in % activation is based on the Ca^2+ signal after addition of Lys-Des-Arg^9-bradykinin (0.5 nM) or Des-Arg^9-bradykinin (100 nM). Antagonists lead to suppression of the Ca^2+ influx after the addition of the agonist. % Inhibition compared with the maximum achievable inhibition is indicated.
The agonistic or antagonistic activity of substances can be determined on the bradykinin receptor 1 (B1R) of the species human and rat using the following assay. According to this assay, the Ca^2+ influx through the channel is quantified with the aid of a Ca^2+-sensitive dye (Fluo-4 type, Molecular Probes Europe BV, Leiden, Netherlands) using a Fluorescent Imaging Plate Reader (FLIPR, Molecular Devices, Sunnyvale, USA).
Chinese hamster ovary cells (CHO K1 cells) which have been stably transfected with the human B1R gene (hB1R cells) or with the B1R gene of the rat (rB1R cells) are used. For functional studies, the cells are plated out on black 96-well plates having a clear base (BD Biosciences, Heidelberg, Germany or Greiner, Frickenhausen, Germany) in a density of 20,000-35,000 cells/well. The cells are left overnight at 37° C. and with 5% CO2 in culture medium (hB1R cells: Nutrient Mixture Ham's F12, Gibco Invitrogen GmbH, Karlsruhe, Germany or DMEM, Sigma-Aldrich, Taufkirchen, Germany; rB1R cells: D-MEM/F12, Gibco Invitrogen GmbH, Karlsruhe, Germany), with 10 vol.% FBS (fetal bovine serum, Gibco Invitrogen GmbH, Karlsruhe, Germany or PAN Biotech GmbH, Aidenbach, Germany). On the following day, the cells are loaded for 60 minutes at 37° C. with 2.13 μM Fluo-4 (Molecular Probes Europe BV, Leiden, Netherlands) in HBSS buffer (Hank's buffered saline solution, Gibco Invitrogen GmbH, Karlsruhe, Germany) […] (Sigma-Aldrich, Taufkirchen, Germany) and 10 mM HEPES (Sigma-Aldrich, Taufkirchen, Germany). The plates are then washed twice with HBSS buffer, and HBSS buffer additionally containing 0.1% BSA (bovine serum albumin; Sigma-Aldrich, Taufkirchen, Germany), 5.6 mM glucose and 0.05% gelatin (Merck KGaA, Darmstadt, Germany) is added to the plates. After incubation for a further 20 minutes at room temperature, the plates are inserted into the FLIPR for Ca^2+ measurement. Alternatively, washing is carried out with buffer A (15 mM HEPES, 80 mM NaCl, 5 mM KCl, 1.2 mM CaCl2, 0.7 mM MgSO4, 2 g/l glucose, 2.5 mM probenecid) followed by loading with buffer A with added 2.5 μM Fluo-4 and 0.025% Pluronic F127 (Sigma-Aldrich, Taufkirchen, Germany). The cells are then washed twice with buffer A and incubated for 30 minutes at room temperature with buffer A additionally containing 0.05% BSA and 0.05% gelatin and are then inserted into the FLIPR for Ca^2+ measurement. The Ca^2+-dependent fluorescence is measured before and after the addition of substances (λex=488 nm, λem=540 nm). Quantification is carried out by measuring the highest fluorescence intensity (FC, fluorescence counts) over time.
The FLIPR protocol consists of two substance additions. Test substances (10 μM) are first pipetted onto the cells and the Ca^2+ influx is compared with the control (hB1R: Lys-Des-Arg^9-bradykinin>=50 nM; rB1R: Des-Arg^9-bradykinin 10 μM). This gives the activation in %, based on the Ca^2+ signal after addition of Lys-Des-Arg^9-bradykinin (>=50 nM) or Des-Arg^9-bradykinin (10 μM). After 10-20 minutes' incubation, Lys-Des-Arg^9-bradykinin (hB1R) or Des-Arg^9-bradykinin (rB1R) is applied in the concentration of the EC80, and the influx of Ca^2+ is likewise determined. Antagonists lead to suppression of the Ca^2+ influx. The % inhibition compared with the maximum achievable inhibition is calculated. […]

rat B1R = molecular target: T2, rat B1R (Rattus norvegicus, UniProt P97583); assay: FLIPR Ca2+ functional study on bradykinin receptor 1 (rB1R CHO K1 cells); type: cell-based; settings: CHO-K1, % inhibition rat B1R at 10 μM, read-out: % inh. (rat B1R) 10 μM
T2 construct: expressed in transfected cells; host or cells: CHO K1 cells
T2 sequence (P97583 1-337): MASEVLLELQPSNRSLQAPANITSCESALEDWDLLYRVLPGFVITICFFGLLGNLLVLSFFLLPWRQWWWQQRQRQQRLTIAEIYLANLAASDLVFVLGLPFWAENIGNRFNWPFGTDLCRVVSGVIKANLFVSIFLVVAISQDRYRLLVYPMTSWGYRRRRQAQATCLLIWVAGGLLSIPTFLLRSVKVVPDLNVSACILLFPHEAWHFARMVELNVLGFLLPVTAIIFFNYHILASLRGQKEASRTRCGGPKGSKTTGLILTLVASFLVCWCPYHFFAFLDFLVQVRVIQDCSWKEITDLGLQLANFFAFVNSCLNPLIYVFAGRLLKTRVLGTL
Summary of the method: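 CHO K1 cells stably expressing human or rat B1R were loaded with Fluo-4 and read on FLIPR (ex 488/em 540 nm, peak counts). Test compound (10 μM, or a concentration range for IC50) was added first for % activation versus control agonist; after 10-20 min, EC80 Lys-Des-Arg9-bradykinin (human) or Des-Arg9-bradykinin (rat) was added, giving % inhibition of maximum. n=2-3, N≥2.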

Question: Which inhibition at 10 µM (human B1R) does the source give for COc1cc(C)c(S(=O)(=O)N2CCCCC2COc2nccc(N(C)CCN3CCC(c4ccccc4)(N(C)C)CC3)n2)c(C)c1 (stereo not drawn) [G_CC-004, N-[2-(4-dimethylamino-4-phenyl-1-piperidinyl)ethyl]-2-[[1-(4-methoxy-2,6-dimethylphenyl)sulfonyl-2-piperidinyl]methoxy]-N-methyl-4-pyrimidineamine] here?
Answer: The inhibition at 10 µM was 100%.

Question: What about the inhibition at 10 µM (rat B1R) of the same compound?
Answer: Its inhibition at 10 µM is 100%.

Question: For COc1cc(C)c(S(=O)(=O)N(CCCc2cncc(N3CCC4(CCN(c5ccncc5)CC4)CC3)n2)C2CC2)c(C)c1 [Example I-006, N-cyclopropyl-4-methoxy-2,6-dimethyl-N-[3-[6-(9-pyridin-4-yl-3,9-diazaspiro[5.5]undecan-3-yl)-pyrazin-2-yl]-propyl]-benzenesulfonic acid amide], which inhibition at 10 µM (human B1R) is on record?
Answer: The inhibition at 10 µM was 94%.

Question: What about the inhibition at 10 µM (rat B1R) of the same compound?
Answer: The inhibition at 10 µM was 97%.

Question: How did the inhibition at 10 µM (human B1R) turn out when COc1cc(C)c(S(=O)(=O)N(C)CCOc2nccc(N3CCN(c4ccncc4)CC3)n2)c(C)c1 [Example G-002, 4-methoxy-N,2,6-trimethyl-N-[2-[[4-[4-(4-pyridyl)-1-piperazinyl]-2-pyrimidinyl]oxy]ethyl]benzenesulfonamide] was run?
Answer: Its inhibition at 10 µM is 97%.

Question: What about the inhibition at 10 µM (rat B1R) of the same compound?
Answer: Its inhibition at 10 µM is 109%.

Question: Which results are given for COc1cc(C)c(S(=O)(=O)N(CCOc2ccnc(N3CCC(Oc4ccncc4)CC3)n2)C2CC2)c(C)c1 [Example H-005, N-cyclopropyl-4-methoxy-2,6-dimethyl-N-[2-[[2-[4-(4-pyridyloxy)-1-piperidinyl]-4-pyrimidinyl]oxy]ethyl]benzenesulfonamide]?
Answer: inhibition at 10 µM (human B1R): 98%; inhibition at 10 µM (rat B1R): 97%

Question: Which results are given for COc1cc(C)c(S(=O)(=O)N(C)CCOc2ccnc(N3CCN(c4ccncc4)CC3)n2)c(C)c1 [Example H-002]?
Answer: inhibition at 10 µM (human B1R): 81%; inhibition at 10 µM (rat B1R): 51%

Question: What does the source list for COc1cc(C)c(S(=O)(=O)N(CCN(C)c2ccnc(N3CCC4(CCN(c5ccncc5)CC4)CC3)n2)C2CC2)c(C)c1 [Example I-004, N-cyclopropyl-4-methoxy-2,6-dimethyl-N-[2-[methyl-[2-(9-pyridin-4-yl-3,9-diazaspiro[5.5]undecan-3-yl)-pyrimidin-4-yl]-amino]-ethyl]-benzenesulfonic acid amide]?
Answer: inhibition at 10 µM (human B1R): 85%; inhibition at 10 µM (rat B1R): 102%

Question: COc1cc(C)c(S(=O)(=O)N(CCOc2nccc(N3CCC4(CC3)CCC(OCCN3CCCC3)(c3cccnc3)CC4)n2)C2CC2)c(C)c1 [Example G-023, N-cyclopropyl-4-methoxy-2,6-dimethyl-N-[2-[4-[9-pyridin-3-yl-9-(2-pyrrolidin-1-yl-ethoxy)-3-azaspiro[5.5]undecan-3-yl]-pyrimidin-2-yl]oxy-ethyl]-benzenesulfonic acid amide] was tested. Which inhibition at 10 µM (human B1R) did it give?
Answer: Its inhibition at 10 µM is 94%.

Question: What about the inhibition at 10 µM (rat B1R) of the same compound?
Answer: Its inhibition at 10 µM is 107%.

Question: How did the inhibition at 10 µM (human B1R) turn out when COc1cc(C)c(S(=O)(=O)NC(C)(C)COc2nccc(N3CCC4(CCN(c5ccncc5)CC4)CC3)n2)c(C)c1 [Example G-024, N-[1,1-dimethyl-2-[4-(9-pyridin-4-yl-3,9-diazaspiro[5.5]undecan-3-yl)-pyrimidin-2-yl]oxy-ethyl]-4-methoxy-2,6-dimethyl-benzenesulfonic acid amide] was run?
Answer: Its inhibition at 10 µM is 99%.

Question: And the inhibition at 10 µM (rat B1R)?
Answer: The inhibition at 10 µM was 113%.

Question: What does the source list for COc1cc(C)c(S(=O)(=O)N2CCCC(Oc3nccc(N4CCC5(CCN(c6ccncc6)CC5)CC4)n3)C2)c(C)c1 (stereo not drawn) [G_CC-041, 9-[2-[[1-(4-methoxy-2,6-dimethylphenyl)sulfonyl-3-piperidinyl]oxy]-4-pyrimidinyl]-3-(4-pyridyl)-3,9-diazaspiro[5.5]undecane]?
Answer: inhibition at 10 µM (human B1R): 96%; inhibition at 10 µM (rat B1R): 101%

Question: COc1cc(C)c(S(=O)(=O)N2CCCCC2COc2nccc(N3CCC(N4CCN(C)CC4)CC3)n2)c(C)c1 (stereo not drawn) [G_CC-011, 2-[[1-(4-methoxy-2,6-dimethylphenyl)sulfonyl-2-piperidinyl]methoxy]-4-[4-(4-methyl-1-piperazinyl)-1-piperidinyl]pyrimidine] was tested. Which inhibition at 10 µM (human B1R) did it give?
Answer: The inhibition at 10 µM was 91%.

Question: And the inhibition at 10 µM (rat B1R)?
Answer: Its inhibition at 10 µM is 96%.

Question: With COc1cc(C)c(S(=O)(=O)N2CCCCC2COc2nccc(N3CCC4(CCN(Cc5ccccc5)C4=O)CC3)n2)c(C)c1 (stereo not drawn) [G_CC-040, 3-benzyl-8-[2-[[1-(4-methoxy-2,6-dimethylphenyl)sulfonyl-2-piperidinyl]methoxy]-4-pyrimidinyl]-3,8-diazaspiro[4.5]decan-4-one] as the compound, how does the inhibition at 10 µM (human B1R) read?
Answer: The inhibition at 10 µM was 57%.

Question: And the inhibition at 10 µM (rat B1R)?
Answer: The inhibition at 10 µM was 99%.

Question: Which results are given for COc1cc(C)c(S(=O)(=O)N(CCOc2nccc(N3CCC(Oc4ccncc4)CC3)n2)C2CC2)c(C)c1 [Example G-012, N-cyclopropyl-4-methoxy-2,6-dimethyl-N-[2-[[4-[4-(4-pyridyloxy)-1-piperidinyl]-2-pyrimidinyl]oxy]ethyl]benzenesulfonamide]?
Answer: inhibition at 10 µM (human B1R): 99%; inhibition at 10 µM (rat B1R): 97%

Question: Which results are given for COc1cc(C)c(S(=O)(=O)N(CCOc2nccc(N3CCC(OCCN4CCCC4)(c4cccnc4)CC3)n2)C2CC2)c(C)c1 [Example G-007, N-cyclopropyl-4-methoxy-2,6-dimethyl-N-[2-[[4-[4-(3-pyridyl)-4-(2-1-pyrrolidinylethoxy)-1-piperidinyl]-2-pyrimidinyl]oxy]ethyl]benzenesulfonamide]?
Answer: inhibition at 10 µM (human B1R): 100%; inhibition at 10 µM (rat B1R): 97%

Question: What does the source list for COc1cc(C)c(S(=O)(=O)N(C)C(COc2nccc(N3CCC4(CCN(Cc5ccc(F)cc5)C4=O)CC3)n2)c2ccccc2)c(C)c1 (stereo not drawn) [G_CC-060, N-[2-[[4-[3-[(4-fluorophenyl)methyl]-4-oxo-3,8-diazaspiro[4.5]decan-8-yl]-2-pyrimidinyl]oxy]-1-phenylethyl]-4-methoxy-N,2,6-trimethylbenzenesulfonamide]?
Answer: inhibition at 10 µM (human B1R): 17%; inhibition at 10 µM (rat B1R): 88%

Question: How did the inhibition at 10 µM (human B1R) turn out when COc1cc(C)c(S(=O)(=O)N(CCOc2nccc(N3CCC(O)(c4cccnc4)CC3)n2)C2CC2)c(C)c1 [Example G-008, N-cyclopropyl-N-[2-[[4-[4-hydroxy-4-(3-pyridyl)-1-piperidinyl]-2-pyrimidinyl]oxy]ethyl]-4-methoxy-2,6-dimethylbenzenesulfonamide] was run?
Answer: The inhibition at 10 µM was 77%.

Question: And the inhibition at 10 µM (rat B1R)?
Answer: Its inhibition at 10 µM is 98%.
